Usually Kd stands for the concentration at which binding is half-saturated.

Where two headings read alike, the source gives them in different places. Where only a bound is given, the exact number is not on record here.

Experimental findings from paper PMC4907692, “Engineering vanilloid-sensitivity into the rat TRPV2 channel” (eLife, 2016) are described below.

Assay [1] addresses T1, full-length GFP-tagged TRPV1 (Rattus norvegicus, UniProt O35433).
T1 construct: Smooth function for full-length GFP-tagged TRPV1 is a fit of the Hill equation; expressed in transfected cells; host or cells: Saccharomyces cerevisiae (intact cells)
Nature of the assay: 3H-RTx binding to intact S. cerevisiae cells expressing GFP-tagged TRPV1. The note with it: 37°C; for Kd: read-out: Kd of 3H-RTx binding (Hill fit). As for the experimental part:
(§1) To evaluate whether these constructs were competent to bind vanilloids, we initially measured the binding of [^3H]-RTx ([Szallasi and Blumberg, 1999]; [Szallasi et al., 1999]) to intact yeast cells expressing each of the constructs.
(§2) S. cerevisiae cells overexpressing TRPV1 constructs to be used in ligand binding assays on intact cells (Figure 1E,F) were grown as for small scale expression trials. 24 hr after protein induction cells were spun down at 4000g, the supernatant was removed and the pellet resuspended in 1x PBS, normalizing OD600 to 75 for each sample, and aliquoted for storage at -80°C. ^3H-RTx binding assays on cells were performed at 37°C as previously described ([Feng et al., 2015]), but where non-specific binding of RTx was measured using cells expressing GFP alone. The binding of RTx to TRPV1 and TRPV2 in membranes (e.g. Figure 2A,B and 5C) was performed at 37°C unless otherwise stated using membranes prepared from large scale protein preparations of S. cerevisiae containing rat TRPV1 and TRPV2 with a 1D4 tag expressed using a constitutive promoter as in [Moiseenkova-Bell et al., 2008]. Data for binding of RTx to membranes was corrected for non-specific binding, determined using either excess non-radioactive ligand or heat inactivation of the protein, as previously described ([Feng et al., 2015]). The TRPV1-activating double-knot toxin (DkTx) was produced recombinantly, folded in vitro and purified as previously described ([Bae et al., 2012]). Yeast membranes were incubated with DkTx solution for 1 hr at 4°C with gentle agitation prior to undertaking RTx binding assays.

The target of assay [2] is T2, TRPV1 Y511A (dual GFP- and His-tagged) (Rattus norvegicus, UniProt O35433, Y511A).
T2 construct: expressed in transfected cells; host or cells: Saccharomyces cerevisiae (intact cells)
In words: 3H-RTx binding to intact S. cerevisiae cells expressing TRPV1 Y511A. The note with it: 37°C, Figure 1F. As for the experimental part: as §1
as §2, with “The TRPV1-activating double-knot toxin (DkTx) was produced recombinantly, folded in vitro and purified as previously described ([Bae et al., 2012]). Yeast membranes were incubated with DkTx solution for 1 hr at 4°C with gentle agitation prior to undertaking RTx binding assays.” left out

Assay [3] concerns the target T3, 1D4-tagged TRPV2 QM (Rattus norvegicus, UniProt Q9WUD2, F472S/L507M/L510T/Q530E).
T3 construct: made in house; host or cells: S. cerevisiae BJ5457, isolated membranes
T3 sequence (Q9WUD2 1-761 F472S/L507M/L510T/Q530E): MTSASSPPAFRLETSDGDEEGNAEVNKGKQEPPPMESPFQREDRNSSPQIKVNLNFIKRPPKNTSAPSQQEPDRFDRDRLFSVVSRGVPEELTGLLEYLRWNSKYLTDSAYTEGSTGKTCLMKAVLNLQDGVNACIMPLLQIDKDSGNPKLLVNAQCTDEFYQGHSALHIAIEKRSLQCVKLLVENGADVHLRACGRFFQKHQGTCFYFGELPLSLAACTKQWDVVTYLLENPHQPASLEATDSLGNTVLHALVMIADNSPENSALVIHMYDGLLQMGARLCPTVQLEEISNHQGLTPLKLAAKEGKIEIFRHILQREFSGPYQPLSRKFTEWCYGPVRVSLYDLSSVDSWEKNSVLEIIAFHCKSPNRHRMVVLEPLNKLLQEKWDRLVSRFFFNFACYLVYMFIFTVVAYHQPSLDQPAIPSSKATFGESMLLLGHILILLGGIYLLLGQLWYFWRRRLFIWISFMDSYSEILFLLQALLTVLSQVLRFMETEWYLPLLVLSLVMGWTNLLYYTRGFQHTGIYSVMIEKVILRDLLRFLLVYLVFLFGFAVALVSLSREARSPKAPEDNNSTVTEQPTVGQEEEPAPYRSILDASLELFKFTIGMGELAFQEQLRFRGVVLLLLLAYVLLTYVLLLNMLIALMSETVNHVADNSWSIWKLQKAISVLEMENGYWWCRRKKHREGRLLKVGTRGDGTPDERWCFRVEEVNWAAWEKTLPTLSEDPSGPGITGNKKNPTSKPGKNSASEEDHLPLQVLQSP
In words: 3H-RTx binding to yeast membranes containing 1D4-tagged TRPV2 QM. The source says: To examine the strength of RTx binding to the TRPV2 channel, we undertook binding assays after expressing 1D4-tagged TRPV2 and TRPV2 QM in S. cerevisiae and isolating yeast membranes, similar to the experiments described above with TRPV1 (Figure 2). […] To examine the relative importance of the four residues for mediating RTx sensitivity in the TRPV2 QM, we constructed triple mutants and evaluated their sensitivity to RTx electrophysiologically.
The full-length TRPV1 and TRPV2 channels with 1D4 affinity tags ([…]) on their C-termini were cloned into the YEpHIS vector and expressed in the BJ5457 strain of S. cerevisiae using the strong constitutively active PMA1 promoter, as previously described ([Moiseenkova-Bell et al., 2008]). After 48 hr of expression at 30°C in YPD media, cells were harvested by centrifugation and re-suspended in PBS buffer, supplemented with complete protease inhibitor cocktail (Roche, Indianapolis, IN) and 4-amidinophenylmethanesulfonyl fluoride hydrochloride (APMSF) (Sigma-Aldrich, St. Louis, MO). Cells were broken by passing through an Avestin homogenizer at the pressure of 35 kpsi, cell lysate was cleared by centrifugation at 8,000 g for 15 min and membranes were isolated by ultracentrifugation at 190,000 g for 1 hr. […]
S. cerevisiae cells overexpressing TRPV1 constructs to be used in ligand binding assays on intact cells (Figure 1E,F) were grown as for small scale expression trials. 24 hr after protein induction cells were spun down at 4000g, the supernatant was removed and the pellet resuspended in 1x PBS, normalizing OD600 to 75 for each sample, and aliquoted for storage at -80°C. ^3H-RTx binding assays on cells were performed at 37°C as previously described ([Feng et al., 2015]), but where non-specific binding of RTx was measured using cells expressing GFP alone. […] Data for binding of RTx to membranes was corrected for non-specific binding, determined using either excess non-radioactive ligand or heat inactivation of the protein, as previously described ([Feng et al., 2015]). […]

T1 sequence (O35433 whole entry): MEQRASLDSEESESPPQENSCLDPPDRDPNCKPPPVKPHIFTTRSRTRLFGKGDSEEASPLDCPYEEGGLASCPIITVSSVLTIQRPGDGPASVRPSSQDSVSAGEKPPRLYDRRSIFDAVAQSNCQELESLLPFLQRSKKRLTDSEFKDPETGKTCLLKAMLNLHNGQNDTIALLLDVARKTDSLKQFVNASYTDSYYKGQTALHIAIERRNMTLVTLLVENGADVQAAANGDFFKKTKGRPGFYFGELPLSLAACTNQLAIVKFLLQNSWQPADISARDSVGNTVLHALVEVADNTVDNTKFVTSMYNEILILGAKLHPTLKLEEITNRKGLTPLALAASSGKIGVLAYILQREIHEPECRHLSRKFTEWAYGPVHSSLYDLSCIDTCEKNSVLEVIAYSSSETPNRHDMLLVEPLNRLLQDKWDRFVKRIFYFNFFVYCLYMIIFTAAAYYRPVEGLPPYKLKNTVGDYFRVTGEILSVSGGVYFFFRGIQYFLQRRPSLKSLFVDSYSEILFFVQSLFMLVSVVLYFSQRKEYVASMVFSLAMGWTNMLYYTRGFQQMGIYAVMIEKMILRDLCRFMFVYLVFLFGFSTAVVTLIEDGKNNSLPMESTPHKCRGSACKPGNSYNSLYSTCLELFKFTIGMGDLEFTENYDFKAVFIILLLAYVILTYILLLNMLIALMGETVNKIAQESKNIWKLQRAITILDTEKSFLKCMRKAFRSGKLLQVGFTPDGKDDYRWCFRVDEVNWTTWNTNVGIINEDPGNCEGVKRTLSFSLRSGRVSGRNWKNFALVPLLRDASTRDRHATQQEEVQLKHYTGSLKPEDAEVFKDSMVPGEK
T2 sequence (O35433 whole entry Y511A): as the sequence (O35433 whole entry) above, with Y511A counted along it

For the molecule `C=C(C)[C@]12C[C@@H](C)[C@@]34O[C@](Cc5ccccc5)(O[C@@H]1[C@@H]3C=C(COC(=O)Cc1ccc(O)c(OC)c1)C[C@]1(O)C(=O)C(C)=C[C@@H]41)O2` [RTx, resiniferatoxin], the “Hill slope (nH)” value stood at 0.78 in assay [1] (Figure 1E), 0.82 in assay [1] (Figure 1F), 1.1 in assay [2] and 1.7 in assay [3] (37°C). In addition, the Kd in assay [1] (Figure 1E) is 7 nM; in assay [1] (Figure 1F), 7.2 nM; in assay [2] (read-out: Kd of 3H-RTx binding (Hill fit)), over 238 nM; in assay [3] (37°C, read-out: Kd of 3H-RTx binding (Hill fit)), 18 nM. In addition, the “affinity of RTx for TRPV2 QM lower compared to TRPV1” value in assay [3] is “about 30 fold”.
